Measured values from EPA's ToxValDB 9.5 (doi:10.2903/j.efsa.2017.4722).
Values after ≈ are worked out from the molar mass of the structure shown.

Columns and labels:
Oncorhynchus mykiss = settings: acute; duration: 96 hours; mortality
Canidae = settings: oral, Dog Other
Daphnia magna = settings: chronic/long-term; duration: 21 days; reproduction
Lepomis macrochirus = settings: acute; duration: 96 hours; oral; feed; mortality
Apis mellifera = settings: acute; oral; unspecified; mortality
Neomysis kadiakensis = settings: acute; duration: 96 hours; oral; feed; mortality
Landoltia sp. = settings: chronic/long-term; duration: 14 days; frond number
Pimephales promelas = settings: chronic/long-term; duration: 35 days; other
Colinus virginianus = settings: for LD50: acute, oral, mortality
Anas platyrhynchos = settings: acute; oral; unspecified; mortality
Typhlodromus pyri = experiment: LR50; higher = less toxic; settings: acute; mortality

Structure (SMILES) | LC50 (Oncorhynchus mykiss) [µg/mL] | NOAEL (Canidae; chronic, duration: 16 weeks, hematological) [mg/kg-day] | NOEC (Daphnia magna) [mg/L] | LC50 (Lepomis macrochirus) [µg/mL] | LD50 (Apis mellifera) [µg/piece] | LC50 (Neomysis kadiakensis) [µg/mL] | NOEC (Landoltia sp.) [mg/L] | NOEC (Pimephales promelas) [mg/L] | NOAEL (Canidae; chronic, duration: 1 years, neurology) [mg/kg-day] | NOAEL (Canidae; subchronic, duration: 90 days, neurology) [mg/kg-day] | LD50 (Rattus norvegicus; acute, oral, mortality) [mg/kg-day] | NOAEL (Rattus norvegicus; chronic, duration: 2 years, histopathology: nonneoplastic) [mg/kg-day] | LC50 (Tagia sp.; acute, duration: 14 days, mortality) [mg/kg] | NOEC (Tagia sp.; chronic/long-term, duration: 56 days, reproduction) [mg/kg] | LD50 (Colinus virginianus; diet) [mg/kg-day] | LD50 (Colinus virginianus) [mg/kg-day] | NOEL (Colinus virginianus; reproduction developmental) [mg/kg-day] | LD50 (Anas platyrhynchos) [mg/kg-day] | LR50 (Typhlodromus pyri) [g/ha]
OC1COC1 [Oxetan-3-ol] | > 100 | 50 |  |  |  |  |  |  |  |  |  |  |  |  |  |  |  |  | 
Cc1cc(C)nc(NC(=O)NS(=O)(=O)c2ccccc2C(=O)OC2COC2)n1 [Oxasulfuron] |  |  | 14 | > 111 | > 100 | 82.6 (≈ 203 µM) | 0.0002 | 114 | 1.3 | 1.3 | > 5000 | 8.3 | > 1000 | 2 | > 1610 | > 2250 | 6.91 | > 2250 | 3.23
